The text below walks through data of patent US20190022239A1, “NOVEL BIOMOLECULE CONJUGATES AND USES THEREFOR” (The University of Western Australia, priority 2016, published 2019).

The test system of experiment [1] is advanced insulinoma. Nature of the experiment: Survival of mice bearing advanced insulinoma. The settings on record: 5 μg daily i.v. for five days at 24 weeks of age. Type of experiment: in vivo. On the procedure: Survival studies were conducted using mice bearing advanced insulinoma, at 24 weeks of age, treated with 5 μg TNFα-CSG or 0.8 μg CSG daily for five days by intravenous injection.

The test system of experiment [2] is 4T1 tumours. The experiment in a line: Tumour clearance, whole microscopic images of 4T1 tumours. Type of experiment: in vivo, mice. The settings on record: 10 μg for five days.
In experiment [3] the test system is 4T1 breast carcinoma. Nature of the experiment: Tumour uptake of doxorubicin-micelles. Particulars: 2 μg i.v. daily for 5 days, then 100 μL of 1 mM doxorubicin-micelles. Type of experiment: in vivo, mice. As to the method: 4T1 breast carcinoma-bearing mice were treated with 2 μg TNFα-CSG or CSG control, peptide by intravenous injection, daily for 5 days. Mice were then injected with 100 μL of 1 mM doxorubicin-micelles (200 nm in size) and tissues including tumours, spleen and liver were collected for analysis.

In experiment [4] the test system is RIP-Tag insulinoma. The experiment in a line: Immune cell infiltration in RIP-Tag insulinoma (immunofluorescence). Type of experiment: in vivo, mice. The settings on record: 2 and 5 μg daily i.v. for 5 days, vs control groups. On the procedure:
Mice bearing RIP-Tag insulinoma at 25 weeks of age were treated with 2 and 5 μg TNF60 -CSG (in 100 μL) by daily intravenous injection for 5 days. FIG. 6 presents microscopic evaluation of CD4+ and CD8+ T cells and circulatory CD11b macrophages detected by immunofluorescence staining of tissue cross sections.

Experiment [5] has as its system 4T1 breast carcinoma. The experiment in a line: Immune cell infiltration in 4T1 breast carcinoma (FACS). The settings on record: 2 μg daily i.v. for 5 days. Type of experiment: in vivo, mice. The source says: Dextran coated iron oxide encapsulated with 18:0 PEG2000 PE micelle formulation and doxorabicin-micelles were made in the laboratory. 4T1 murine breast carcinoma is an orthotopic implant model by inoculating of 5×10^5 cells in die mammary fat pad of syngeneic BALB/c mice. RIP1-TagS insulinoma model (on C3H background) contains the oncogene SV40 Large T antigen (Tag; RIP, rat insulin gene promoter) that is exclusively expressed in β cells of the pancreas resulting in pancreatic tumours of neuroendocrine origin. ALB-Tag HOC (in C3H background) contains the oncogene SV40 Large T antigen (Tag) that is exclusively expressed in hepatocytes under the control of the albumin (ALB) promoter, resulting in rapid (non-metastatic) HCC tumour progression.
Mice bearing 4T1 breast carcinoma, when tumour size reached 500 mm^3, were treated with 0.5 and 2 μg TNFα-CSG or native TNFα (in 100 μL) by daily intravenous injection for 5 days. FACS quantification of CD4+ and CD8+ T cells and infiltrating macrophages (CD11b+/CD68+/F4/80+) harvested in whole tumours is presented in FIG. 5.
As noted in Example 2, native TNFα at 2 μg is toxic (all mice died after receiving 2 doses of 2 μg TNFα). A lower dose of native TNFα (0.5 μg) is not effective compared to 0.5 μg TNFα-CSG (FIG. 5).

With “TNFα-CSG: Mature murine TNFα (SEQ ID NO:6) with C-terminal conjugated peptide CSGRRSSKC connected via a GGG linker; recombinant fusion protein”, the “survival compared to CSG-treated mice” value in experiment [1] was “significantly enhanced”. Also, the “tumour clearance (hypoxia marker staining)” value in experiment [2] was “large areas at the centre of the tumour devoid of tumour cells”. For the same substance, in experiment [3], the “doxorubicin (autofluorescence) in treated tumours” value was “strong traces of doxorubicin”. The “immune cell infiltration (CD4+, CD8+ T cells, CD11b macrophages)” value in experiment [4] is “significant increase in immune cell infiltration”. For the same substance, in experiment [5], the “increase in immune cell infiltration (CD4+, CD8+ T cells, macrophages)” value is reported as “most effective”.
